Values quoted from earlier work in patent US20120209125A1, “Singlet Oxygen Production and Dosimetry for Photodynamic Therapy” (PHYSICAL SCIENCES, INC., priority 2011, published 2012).

Settings: isoflurane gas anesthesia; 'minimally metabolized'

SMILES: FC(F)OC(Cl)C(F)(F)F (stereo not shown) [isoflurane]
- fraction metabolized by the liver: < 0.17%
